From patent publication US10660333B2, “Substituted 2-heterocyclylimidazolylcarboxamides as pesticides” (BAYER CROPSCIENCE AKTIENGESELLSCHAFT, priority 2016, dated 2020)
Where two headings read alike, the source gives them in different places.

Legend:
[1] = log P by HPLC on reversed-phase (C18) columns, OECD Guideline 117; format: physicochemical; details: for chromatographic logP: reversed-phase (C18) HPLC column
Tetranychus urticae = Tetranychus urticae - spray test, OP-resistant; format: in vivo; details: 500 g/ha, bean leaf discs, after 6 days
Method: Tetranychus urticae—Spray Test, OP-Resistant
(§1) To produce a suitable active ingredient formulation, 1 part by weight of active ingredient is dissolved with the specified parts by weight of solvent and made up to the desired concentration with water containing an emulsifier concentration of 1000 ppm. To produce further test concentrations, the formulation is diluted with emulsifier-containing water.
Discs of bean leaves (Phaseolus vulgaris) infested with all stages of the greenhouse red spider mite (Tetranychus urticae) are sprayed with an active ingredient formulation of the desired concentration.
After 6 days, the efficacy in % is determined. 100% means that all the spider mites have been killed; 0% means that no spider mites have been killed.

Myzus persicae [2] = assay: Myzus persicae - spray test; format: in vivo; details: for pest or weed control at 500 g/ha: Myzus persicae, foliar, 120 h, read-out: efficacy (aphids killed)
Method: Myzus persicae—Spray Test
as §1
(§2) Discs of Chinese cabbage leaves (Brassica pekinensis) infested by all stages of the green peach aphid (Myzus persicae) are sprayed with an active ingredient formulation of the desired concentration.
(§3) After 5 days, the efficacy in % is determined. 100% means that all the aphids have been killed; 0% means that no aphids have been killed.

Myzus persicae [3] = assay: Myzus persicae - oral test; format: in vivo; details: for pest or weed control at 4 ppm: Myzus persicae, 120 h, read-out: efficacy (aphids killed)
Method: (§4) To produce a suitable active ingredient formulation, 1 part by weight of active ingredient is dissolved with the specified parts by weight of solvent and made up to the desired concentration with water.
(§5) 50 μl of the active ingredient formulation are transferred into microtitre plates and made up to a final volume of 200 μl with 150 μl of IPL41 insect medium (33%+15% sugar). Subsequently, the plates are sealed with parafilm, which a mixed population of green peach aphids (Myzus persicae) within a second microtitre plate is able to puncture and imbibe the solution.
as §3

Boophilus microplus = Boophilus microplus - injection test; format: in vivo; details: 20 μg/animal, injection into engorged adult female cattle ticks, after 7 days
Method: Boophilus microplus—Injection Test
Solvent: Dimethyl Sulphoxide
To produce a suitable active ingredient formulation, 10 mg of active ingredient are mixed with 0.5 ml of solvent and the concentrate is diluted to the desired concentration with solvent.
1 μl of the active ingredient solution is injected into the abdomen of 5 engorged adult female cattle ticks (Boophilus microplus). The animals are transferred into dishes and kept in a climate-controlled room.
Efficacy is assessed after 7 days by laying of fertile eggs. Eggs which are not visibly fertile are stored in a climate-controlled cabinet until the larvae hatch after about 42 days. An efficacy of 100% means that none of the ticks has laid any fertile eggs; 0% means that all the eggs are fertile.

Myzus persicae [4] = assay: Myzus persicae - drench test (MYZUPE D), savoy cabbage; format: in vivo; details: Myzus persicae, soil, 240 h, 10 dat, read-out: % efficacy
Method: Myzus persicae—Drench Test (MYZUPE D)
To produce a suitable active ingredient formulation, 1 part by weight of active ingredient is mixed with the specified amounts of solvent and emulsifier, and the concentrate is diluted with water to the desired concentration, it being necessary to include the volume of soil which is drenched in the calculation. It should be ensured that a concentration of 40 ppm of emulsifier in the soil is not exceeded. To produce further test concentrations, water is used for dilution.
Savoy cabbage (Brassica oleracea) in pots with soil and infested by all stages of the green peach aphid (Myzus persicae) is watered with an active ingredient formulation of the desired concentration.
(§6) After the desired period of time, the efficacy in % is determined. 100% means that all the aphids have been killed; 0% means that no aphids have been killed.

Aphis gossypii = Aphis gossypii - spray test (APHIGO S), cotton plants; format: in vivo; details: 144 h, 6 dat, read-out: % efficacy
Method: Aphis gossypii—Spray Test (APHIGO S)
as §1, with “water. If the addition of ammonium salts or/and penetrants is required, these are each added in a concentration of 1000 ppm to the formulation solution.” for “water.”
Cotton plants (Gossypium hirsutum) heavily infested by the cotton aphid (Aphis gossypii) are sprayed with an active ingredient formulation of the desired concentration.
After the desired time, the kill in % is determined. 100% means that all the aphids have been killed; 0% means that no aphids have been killed.

Myzus persicae [5] = assay: Myzus persicae - spray test (MYZUPE S), bell pepper plants; format: in vivo; details: Myzus persicae, 144 h, 6 dat, read-out: % efficacy
Method: Myzus persicae—Spray Test (MYZUPE S)
as §1, with “water. If the addition of ammonium salts or/and penetrants is required, these are each added in a concentration of 1000 ppm to the formulation solution.” for “water.”
Bell pepper plants (Capsicum annuum) severely infested with the green peach aphid (Myzus persicae) are treated by spraying with the active ingredient formulation in the desired concentration.
After the desired time, the kill in % is determined. 100% means that all the animals have been killed; 0% means that no animals have been killed.

Myzus persicae [6] = assay: Myzus persicae - spray test (MYZUPE), comparison with prior art; format: in vivo; details: Myzus persicae, 120 h, 5 dat, read-out: % efficacy; for Emax at 100 g/ha: 100 g/ha (g of ai/ha)
Method: Myzus persicae—Spray Test (MYZUPE)
as §1, §2, §6

Myzus persicae [7] = assay: Myzus persicae - oral test (MYZUPE O), comparison with prior art; format: in vivo; details: Myzus persicae, po, 120 h, 5 dat, read-out: % efficacy
Method: Myzus persicae—Oral Test (MYZUPE O)
as §4, §5, §6

Meloidogyne incognita = Meloidogyne incognita - test; format: in vivo; details: 20 ppm, lettuce, after 14 days
Method: Meloidogyne incognita—Test
To produce a suitable active ingredient formulation, 1 part by weight of active ingredient is mixed with the stated amount of solvent and the concentrate is diluted to the desired concentration with water.
Vessels are filled with sand, active ingredient solution, an egg/larvae suspension of the southern root-knot nematode (Meloidogyne incognita) and lettuce seeds. The lettuce seeds germinate and the plants develop. The galls develop on the roots.
After 14 days, the nematicidal efficacy in % is determined by the formation of galls. 100% means that no galls were found; 0% means that the number of galls on the treated plants corresponds to the untreated control.

[8] = HPLC RP C18, acidic range pH 2.7, 0.1% formic acid/acetonitrile
[9] = HPLC RP C18, neutral range pH 7.8, ammonium hydrogencarbonate/acetonitrile
[10] = 500 g/ha, Chinese cabbage leaf discs, after 5 days
[11] = HPLC RP C18, acidic range pH 2.7, 0.1% formic acid/acetonitrile, read-out: logP[a]
[12] = HPLC RP C18, neutral range pH 7.8, ammonium hydrogencarbonate/acetonitrile, read-out: logP[n]

Compound	logP[a] [1, 8]	logP[n] [1, 9]	chromatographic logP [1, 11]	chromatographic logP [1, 12]	efficacy (spider mites killed) (Tetranychus urticae)	efficacy (aphids killed) (Myzus persicae [2]; [10])	efficacy (aphids killed) (Myzus persicae [3]; 4 ppm, oral, after 5 days)	efficacy (laying of fertile eggs) (Boophilus microplus)	pest or weed control at 500 g/ha (Myzus persicae [2]; [10])	pest or weed control at 4 ppm (Myzus persicae [3]; 4 ppm, oral, after 5 days)	other results
CN(C(=O)c1cnc(C2CC(c3ccc([N+](=O)[O-])cc3)=NO2)n1C)c1cccnc1 (stereo not drawn) [Example I-1-24]	–	–	–	–	100%	90%	100%	–	–	–	logP[a] ([1]; pH 2.7): 1.64; logP[n] ([1]; pH 7.8): 1.84
CN(C(=O)c1cnc(C2CC(c3ccccc3)=NO2)n1C)c1cccnc1 (stereo not drawn) [Example I-1-7]	–	–	1.45	1.72	–	–	–	80%	90%	100%	Emax at 0.16 ppm (Myzus persicae [4]): 80%; Emax at 0.8 ppm (Myzus persicae [4]): 90%; Emax at 0.16 ppm (Aphis gossypii): 50%; Emax at 0.8 ppm (Aphis gossypii): 100%; Emax at 0.16 ppm (Myzus persicae [5]): 95%; Emax at 0.8 ppm (Myzus persicae [5]): 100%; Emax at 100 g/ha (Myzus persicae [6]): 90%; Emax at 500 g/ha (Myzus persicae [6]): 90%; Emax at 0.8 ppm (Myzus persicae [7]): 100%; Emax at 4 ppm (Myzus persicae [7]): 100%
CN(C(=O)c1cnc(C2=NOCCO2)n1C)c1cccnc1 [Example I-1-29, 2-(5,6-Dihydro-1,4,2-dioxazin-3-yl)-N,1-dimethyl-N-(pyridin-3-yl)-1H-imidazole-5-carboxamide]	–	–	0.45	0.76	–	–	–	–	–	–	nematicidal efficacy (formation of galls) (Meloidogyne incognita): 100%; pest or weed control at 500 g/ha (Myzus persicae [2]; in Brassica rapa): 100%; pest or weed control at 4 ppm (Myzus persicae [3]; po): 100%

Second part, led by results:

logP[a] [1, 8]	logP[n] [1, 9]	chromatographic logP [1, 11]	chromatographic logP [1, 12]	Compound	efficacy (spider mites killed) (Tetranychus urticae)	efficacy (aphids killed) (Myzus persicae [2]; [10])	efficacy (aphids killed) (Myzus persicae [3]; 4 ppm, oral, after 5 days)	efficacy (laying of fertile eggs) (Boophilus microplus)	pest or weed control at 500 g/ha (Myzus persicae [2]; [10])	pest or weed control at 4 ppm (Myzus persicae [3]; 4 ppm, oral, after 5 days)	other results
2.18	2.37	–	–	CN(C(=O)c1cnc(C2CC(c3ccc(C(F)(F)F)cc3)=NO2)n1C)c1cccnc1 (stereo not drawn) [Example I-1-23]	100%	90%	100%	–	–	–	–
1.74	1.92	–	–	CCN(C(=O)c1cnc(C2CC(c3ccccc3)=NO2)n1C)c1cccnc1 (stereo not drawn) [Example I-1-8]	90%	100%	100%	–	–	–	–
–	–	1.39	1.63	CN(C(=O)c1cnc(C2CC(c3cccc(C#N)c3)=NO2)n1C)c1cccnc1 (stereo not drawn) [Example I-1-19, 2-[3-(3-Cyanophenyl)-4,5-dihydro-1,2-oxazol-5-yl]-N,1-dimethyl-N-(pyridin-3-yl)-1H-imidazole-5-carboxamide]	–	–	–	95%	100%	100%	–
0.54	1.11	–	–	CN(C(=O)c1cnc(C2CC(c3ccncc3)=NO2)n1C)c1cccnc1 (stereo not drawn) [Example I-1-28]	–	90%	100%	80%	–	–	–
–	–	0.71	1.09	CCC1=NOC(c2ncc(C(=O)N(C)c3cccnc3)n2C)C1 (stereo not drawn) [Example I-1-2]	–	–	–	–	90%	100%	Emax at 0.16 ppm (Myzus persicae [4]): 98%; Emax at 0.8 ppm (Myzus persicae [4]): 100%; Emax at 0.16 ppm (Aphis gossypii): 98%; Emax at 0.8 ppm (Aphis gossypii): 98%; Emax at 0.16 ppm (Myzus persicae [5]): 100%; Emax at 0.8 ppm (Myzus persicae [5]): 100%; Emax at 20 g/ha (Myzus persicae [6]; 20 g/ha (g of ai/ha)): 90%; Emax at 100 g/ha (Myzus persicae [6]): 70%; Emax at 500 g/ha (Myzus persicae [6]): 90%; Emax at 0.8 ppm (Myzus persicae [7]): 100%; Emax at 4 ppm (Myzus persicae [7]): 100%
